Measurements as given in US20200316096A1, “COMBINATION OF DIET AND DRUG THERAPY FOR TREATING CANCER” (Trustees of Boston College, priority 2019, published 2020).

Tests used:
VM-M3 tumour = experiment: VM-M3 orthotopic GBM model: bioluminescence imaging and survival; assay type: in vivo, mouse (VM/Dk)
Description: FIGS. 1A-1F. Restricted Ketogenic diet with DON reduces progression and mortality of the VM-M3 GBM. VM/Dk inbred mice were implanted orthotopically with a small (1.0 mm×1.0 mm) tissue fragment from the VM-M3 tumour on day 0. The implanted mice were divided into two groups on day 4 and were fed either; a standard chow diet unrestricted or ad-libitum (SD-UR), or a ketogenic diet (KD-R) in restricted amounts to reduce body weight by about 15%. DON (0.1-1.0 mg/kg) was injected i.p. 7 days following orthotopic tumour implantation. […] 1A. All mice were imaged in-vivo and terminated on day 14 or 15 when all control mice appeared moribund (experiments 1 & 2). For experiment 1, bioluminescence was scored from 0-4, following the administration of lower doses of DON (0.1 and 0.5 mg/kg). Values are expressed as the mean+/−SEM and a one-way analysis of variance followed by Tukey's post hoc test was performed to determine the significance between groups, FIG. 1B. In experiment 2, in-vivo bioluminescent photon values were obtained following the administration of DON (1.0 mg/kg) in mice under the KD-R, FIG. 1C. The average in-vivo bioluminescent photon values were calculated for the KD-R (n=4) and KD-R+DON (n=8) mice in experiment 2. Values are presented as the mean+/−SEM and the P value was calculated using a two-tailed student's t-test, FIG. 1D. in-vivo bioluminescent images of 3 representative mice from both study groups in experiment 2 are shown, FIG. 1E. For experiment 3, a survival study was performed, and a Kaplan Meier survival plot was configured for SD-UR (n=15), SD-UR+DON (n=10), KD-R (n=10), and KD-R+DON (n=10), FIG. 1F.
FIGS. 2A-2C. Restricted Ketogenic diet with DON reduces VM-M3 GBM bioluminescence. VM/Dk mice were implanted with a VM-M3 tumour as described in the previous figures. Mouse brains were imaged ex-vivo on day 14 or 15. Mice were imaged ex-vivo after in-vivo bioluminescent imaging, as described in the previous figures. Individual ex-vivo bioluminescent photon values were measured following the administration of DON (1.0 mg/kg) in KD-R mice, FIG. 2A. From the individual measurements, the average ex-vivo bioluminescent photon value was calculated for both the KD-R (n=6) and KD-R+DON (n=8) mouse groups. Values are presented as the mean+/−SEM and significance of differences was determined following a two-tailed student's t-test, FIG. 2B. ex-vivo bioluminescent images of brains from representative mice in experiment 2 are shown in comparison to SD-UR, FIG. 2C.
To observe the effect of the KD-R and DON on the VM-M3 tumour model, three consecutive experiments were conducted. Experiment 1 included four groups (SD-UR; SD-UR+DON; KDR; KDR+DON) with lower DON dosages (0.1 and 0.5 mg/kg). Experiment 2 involved both in-vivo and ex-vivo imaging of two study groups (KD-R and KD-R+DON) following the administration of a higher dose of DON (1.0 mg/kg). Experiment 3, a survival study, also used the higher DON dose (1.0 mg/kg) and included the four groups from Experiment 1 (SD-UR; SD-UR+DON; KDR; KDR+DON) ( ).
The KD-R+DON treatment was performed as outlined in the study timeline (FIG. 1A). In experiment 1, two doses of DON (0.1 and 0.5 mg/kg) were used in both the SD-UR and KD-R groups (FIG. 1B). d-luciferin was injected i.p. 15 days after tumour implantation, and in-vivo bioluminescence imaging was performed. The total VM-M3 tumour bioluminescence photon values were scored from 0 to 4, with 0 being the baseline value and 4 being the highest value.
Experiment 2 involved a larger number of mice that were treated with a higher dose of DON (1.0 mg/kg). Due to the observed synergy between the KD-R and DON in experiment 1, only the KD-R group was selected for further experiments. All mice in this experiment expressed a significant amount of tumour burden as observed by in-vivo imaging on day 7 (data not shown). […] All untreated SD-UR control mice died between day 15 and 18. […]

VM-M3 tumour cells = experiment: VM-M3 brain tumour histology (H&E) and Ki-67 staining; assay type: in vivo, mouse (VM/Dk); conditions: compared with SD-UR brains
Description: VM/Dk mice were implanted with VM-M3 cells orthotopically in the brain on day 0 as described in the previous figures. The brains were fixed in formalin for histology, processed, and stained as described in Methods. Histological analysis (H&E) was used to validate the presence of tumour cells, FIG. 3A. […] DAPI is used for the Ki-67 negative nuclear stain.
Brain tumour samples were fixed in 10% neutral buffered formalin (Sigma) and embedded in paraffin. The brain tumour samples were sectioned at 5 μm, were stained with haematoxylin and eosin (H&E) at the Harvard University Rodent Histopathology Core Facility (Boston, Mass.), and were examined by light microscopy using either a Zeiss Axioplan 2 or Nikon SMZ1500 light microscope. Images were acquired using SPOT Imaging Solutions (Diagnostic Instruments, Inc.) cameras and software. All histological sections were evaluated at the Harvard University Rodent Histopathology Core Facility.
For immunohistochemistry, the tissue sections from untreated and treated tumour bearing mice were deparaffinized, rehydrated, and washed. The tissue sections were then heat treated (95° C.) in antigen unmasking solution (Vector Laboratories, Burlingame, Calif.) for 30 min. […] Nuclei were stained using NucBlue (Invitrogen). Images were captured by the EVOS FL Cell Imaging System fluorescent microscope. […]

[1] = Toxicity and body weight observations in DON treated mice; assay type: in vivo, mouse
Description: FIG. 11. Body weights of VM-M3 tumour bearing mice. VM-M3/Fluc tumour fragments were implanted as described in FIGS. 1A-1F. Body weight was determined every alternate day. Initial and final body weight data are presented. Mice fed the SD-UR began to drop body weight on the day of termination due to tumour burden. Mice fed the KD-R maintained a 15-18% body weight reduction throughout the experiment due to reduced caloric intake. Initial and final body weights were similar in the SD-UR and the SD-UR+DON mice (n=15 mice/group). Final body weights were lower than initial body weights in the KD-R and the KD-R+DON mice (n=15 mice/each group). Values are expressed as the mean+/−SEM and a two tailed student's t-test was performed between the initial and final values of each group (*=p<0.01).
It is proposed that issues with DON toxicity arise when there is an appreciable competition for glutamine between host and tumour. There is also increasing evidence supporting the protective role of glutamine supplementation for cancer patients^46. Since tumour consumption of glutamine is dissipative, glutamine supplementation might not increase tumour growth^46. However, additional preclinical studies are needed to determine if glutamine supplementation could be used together with DON. The present disclosure provides that strategies for managing toxicity of a therapeutically effective drug would be as important as developing a new drug.
The following studies were to determine if the simultaneous targeting of glucose and glutamine, while under therapeutic ketosis, could manage late stage growth and enhance survival without toxicity in two different syngeneic mouse models of GBM. DON was administered 7 days after tumour implantation, which is considered late for the VM-M3/Fluc tumour, as neurological signs and symptoms first appear at 10 to 12 days post implantation with morbidity occurring in 100% of the tumour-bearing mice by 14-18 days^2. Additional results were obtained in C57BL/6J inbred mice bearing the syngeneic CT-2A high-grade stem cell glioma^32. […]

[N-]=[N+]=CC(=O)CC[C@H](N)C(=O)O [DON, 6-diazo-5-oxo-L-norleucine]
reduction in tumour growth (VM-M3 tumour; DON 0.5 mg/kg once or twice per week, bioluminescent imaging): 60 to 70% | resolution of the brain tumour (VM-M3 tumour; DON 1.0 mg/kg, same schedule, bioluminescent imaging): near complete resolution | lower photon value compared to control SD-UR group (VM-M3 tumour; experiment 1, DON 0.1 and 0.5 mg/kg, in-vivo bioluminescence day 15): 44% | average ex-vivo photon value (VM-M3 tumour; experiment 2, DON 1.0 mg/kg, FIG. 2B): significant reduction | mice with baseline value of in-vivo bioluminescence (VM-M3 tumour; experiment 2, KD-R fed mice, DON 1.0 mg/kg, day 14 or 15): 7 out of the 8 | individual ex-vivo bioluminescent values (VM-M3 tumour; experiment 2, KD-R fed mice, DON 1.0 mg/kg, resected brains): below the baseline value | average in-vivo photon value (VM-M3 tumour; experiment 2, KD-R fed mice, DON 1.0 mg/kg, versus KD-R): significant reduction | histology (H&E) of primary tumour (VM-M3 tumour cells): significant area of dead cells | toxic effects in non-tumour-bearing VM/Dk mice ([1]; DON at the concentrations used in this study): no toxic effects | initial versus final body weight ([1]; VM-M3 tumour bearing mice, n=15 mice/group): similar | toxicity in DON treated tumour-bearing mice ([1]; until end of study, when mild muscle loss was observed in some mice): No noticeable toxicity
